Tests used:
[1] = target: T1, human SGLT1 (Homo sapiens, UniProt P13866); test: SGLT1 assay: Na-dependent 14C-AMG uptake in CHO-K1 cells stably expressing human SGLT1; type: cell-based; settings: for SGLT1 %-inhibition / inhibition at 0.3 µM: @ 0.3 μM; for IC50: average if tested more than once
T1 construct: expressed in transfected cells
T1 sequence (P13866 1-664): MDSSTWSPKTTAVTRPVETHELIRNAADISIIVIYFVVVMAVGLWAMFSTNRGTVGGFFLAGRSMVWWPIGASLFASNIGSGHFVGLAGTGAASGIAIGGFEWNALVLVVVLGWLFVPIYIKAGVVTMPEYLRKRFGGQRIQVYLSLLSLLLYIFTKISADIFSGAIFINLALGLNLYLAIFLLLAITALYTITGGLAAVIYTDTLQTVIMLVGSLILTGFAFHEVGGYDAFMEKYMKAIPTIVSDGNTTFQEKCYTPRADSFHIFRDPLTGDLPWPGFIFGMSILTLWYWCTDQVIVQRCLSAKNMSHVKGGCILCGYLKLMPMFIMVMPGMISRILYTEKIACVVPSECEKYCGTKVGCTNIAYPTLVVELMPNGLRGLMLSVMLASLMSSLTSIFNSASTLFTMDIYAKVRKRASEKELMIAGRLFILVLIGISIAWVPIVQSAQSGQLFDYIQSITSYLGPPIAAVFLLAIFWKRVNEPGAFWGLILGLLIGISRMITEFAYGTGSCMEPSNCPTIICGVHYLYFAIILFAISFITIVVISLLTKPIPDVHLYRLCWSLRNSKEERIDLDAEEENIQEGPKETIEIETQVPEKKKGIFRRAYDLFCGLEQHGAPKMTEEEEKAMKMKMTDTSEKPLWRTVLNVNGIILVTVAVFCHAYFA
Procedure, shortened: (§1)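 Stable CHO-K1 lines were pretreated 24 h with 10 mM Na-butyrate, then compound (0.001–10 μM) for 10 min in Na+ buffer (137 mM NaCl, pH 7.4). Uptake of 14C-AMG (500 μM final, 0.07 μCi/well) over 2 h at 37° C measured by scintillation; %-inhibition or IC50.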

[2] = target: T2, human SGLT2 (Homo sapiens, UniProt P31639); test: SGLT2 assay: Na-dependent 14C-AMG uptake in CHO-K1 cells stably expressing human SGLT2; type: cell-based; settings: for SGLT2 %-inhibition / inhibition at 0.3 µM: @ 0.3 μM; for IC50: average if tested more than once
T2 construct: expressed in transfected cells
T2 sequence (P31639 1-672): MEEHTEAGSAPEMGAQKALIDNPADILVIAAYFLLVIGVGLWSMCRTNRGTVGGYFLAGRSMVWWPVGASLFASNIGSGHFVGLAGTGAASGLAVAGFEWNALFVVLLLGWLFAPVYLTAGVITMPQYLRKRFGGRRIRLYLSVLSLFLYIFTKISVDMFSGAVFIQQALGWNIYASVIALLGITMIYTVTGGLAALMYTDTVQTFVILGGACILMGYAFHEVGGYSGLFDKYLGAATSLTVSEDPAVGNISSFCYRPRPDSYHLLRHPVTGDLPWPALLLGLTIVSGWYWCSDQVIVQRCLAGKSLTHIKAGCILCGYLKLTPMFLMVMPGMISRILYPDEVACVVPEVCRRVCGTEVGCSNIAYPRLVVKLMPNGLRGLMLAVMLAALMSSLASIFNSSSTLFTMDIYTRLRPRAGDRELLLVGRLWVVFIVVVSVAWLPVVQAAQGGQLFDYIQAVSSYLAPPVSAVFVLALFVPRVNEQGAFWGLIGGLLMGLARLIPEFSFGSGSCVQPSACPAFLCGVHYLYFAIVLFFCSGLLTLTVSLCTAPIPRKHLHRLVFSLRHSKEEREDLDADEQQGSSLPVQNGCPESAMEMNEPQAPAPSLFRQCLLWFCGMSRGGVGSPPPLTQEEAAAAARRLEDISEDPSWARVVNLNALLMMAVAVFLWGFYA
Procedure, shortened: as §1

SMILES | SGLT1 %-inhibition [1] | SGLT2 %-inhibition [2] | IC50 [1] | IC50 [2] | other results
CCc1ccc([C@@H]2O[C@H](CO)[C@@H](F)[C@H](O)[C@H]2O)cc1Cc1ccc2c(c1)OC(F)(F)O2 [Compound 158] | 2.6% @ 0.3 μM | 18.0% @ 0.3 μM |  |  | 
COc1cc(O)c([C@@H]2O[C@H](CF)[C@@H](F)[C@H](O)[C@H]2O)cc1Cc1cc2ccccc2s1 [Compound 11, (2S,3R,4R,5S,6R)-2-[5-(1-benzothiophen-2-ylmethyl)-2-hydroxy-4-methoxyphenyl]-5-fluoro-6-(fluoromethyl)oxane-3,4-diol] |  |  | 0.091 µM | 0.059 µM | 
COc1cc(O)c([C@@H]2O[C@H](CC#N)[C@@H](F)[C@H](O)[C@H]2O)cc1Cc1cc2ccccc2s1 [Compound 22] |  |  |  | 0.241 µM | inhibition at 0.3 µM [1]: 62.7%
COc1cc(OC)c([C@@H]2O[C@H](CO)[C@@H](F)[C@H](O)[C@H]2O)cc1Cc1cc2c(s1)CCN(C#N)C2 [Compound 104] | 32.5% @ 0.3 μM | 81.2% @ 0.3 μM |  |  | 
CCc1ccc(Cc2cc([C@@H]3O[C@H](CO)[C@@H](F)[C@H](O)[C@H]3O)cc3c2OCC3)cc1 [Compound 134] |  |  | 0.254 µM | 0.012 µM | 
Cc1cc(O)c([C@@H]2O[C@H](CO)[C@@H](F)[C@H](O)[C@H]2O)cc1Cc1cc2c(s1)C(=O)CCO2 [Compound 129] |  |  | 0.176 µM | 0.007 µM | 
OC[C@H]1O[C@@H](c2cc3c(c(Cc4ccc5c(c4)NCCC5)c2)OCC3)[C@H](O)[C@@H](O)[C@@H]1F [Compound 89] |  |  | 0.042 µM | 0.1 µM | 
Cc1cnc(N2CCc3sc(Cc4cc([C@@H]5O[C@H](CO)[C@@H](F)[C@H](O)[C@H]5O)ccc4C)cc3C2)s1 [Compound 122] | 31.7% @ 0.3 μM | 63.6% @ 0.3 μM |  |  | 
O=C1COc2cc(Cc3cc([C@@H]4O[C@H](CO)[C@@H](F)[C@H](O)[C@H]4O)cc4c3OCC4)ccc2N1 [Compound 97] | 31.2% @ 0.3 μM | 67.9% @ 0.3 μM |  |  | 
COc1cc(Cl)c(Cc2cc3c(s2)CCN(C(=O)N2CCCC2)C3)cc1[C@@H]1O[C@H](CO)[C@@H](F)[C@H](O)[C@H]1O [Compound 96] | 29.1% @ 0.3 μM | 18.2% @ 0.3 μM |  |  | 
COC[C@H]1O[C@@H](c2cc(Cc3cc4ccccc4s3)c(C)cc2O)[C@H](O)[C@@H](O)[C@@H]1F [Compound 19] | 47.6% @ 0.3 μM | 68.1% @ 0.3 μM |  |  | 
CCOc1c(Cc2ccc3c(c2)OCCO3)cc([C@@H]2O[C@H](CO)[C@@H](F)[C@H](O)[C@H]2O)c2c1CCO2 [Compound 102, (2S,3R,4R,5S,6R)-2-[5-(2,3-dihydro-1,4-benzodioxin-6-ylmethyl)-4-ethoxy-2,3-dihydrobenzofuran-7-yl]-5-fluoro-6-(hydroxymethyl)tetrahydropyran-3,4-diol] |  |  |  |  | inhibition at 0.3 µM [1]: 27.6%; inhibition at 0.3 µM [2]: 40.7%
Cc1cnc(N2CCc3sc(Cc4cc([C@@H]5O[C@H](CO)[C@@H](F)[C@H](O)[C@H]5O)c(O)cc4C)cc3C2)s1 [Compound 117] | 44.3% @ 0.3 μM | 69.9% @ 0.3 μM |  |  | 
Cc1cnc(N2CCc3sc(Cc4cc([C@@H]5O[C@H](CO)[C@@H](F)[C@H](O)[C@H]5O)ccc4C)cc3C2)s1 [Compound 113] | 21.0% @ 0.3 μM | 53.9% @ 0.3 μM |  |  | 
[2H]C1([2H])Oc2ccc(Cc3cc([C@@H]4O[C@H](CO)[C@@H](F)[C@H](O)[C@H]4O)cc4c3CCO4)cc2OC1([2H])[2H] [Compound 181] | 67.0% @ 0.3 μM | 85.0% @ 0.3 μM |  |  | 
CCOc1ccc(Cc2cc([C@@H]3O[C@H](CO)[C@@H](F)[C@H](O)[C@H]3O)c(O)c3c2OCC3)cc1 [Compound 63] |  |  | 0.122 µM | 0.004 µM | 
COC(=O)N1CCc2sc(Cc3cc([C@@H]4O[C@H](CO)[C@@H](F)[C@H](O)[C@H]4O)c(OC)cc3Cl)cc2C1 [Compound 76] | 28.6% @ 0.3 μM | 72.2% @ 0.3 μM |  |  | 
CCc1ccc(Cc2cc([C@@H]3O[C@H](CO)[C@@H](F)[C@H](O)[C@H]3O)c(O)c3c2OCC3)cc1 [Compound 62] |  |  | 0.048 µM | 0.004 µM | 
COc1cc(C)c(Cc2cc3c(s2)CCN(C(=O)N2CCOCC2)C3)cc1[C@@H]1O[C@H](CO)[C@@H](F)[C@H](O)[C@H]1O [Compound 69] | 20.4% @ 0.3 μM | 60.3% @ 0.3 μM |  |  | 
COC[C@H]1O[C@@H](c2cc(Cc3cc4ccccc4s3)c(OC)cc2O)[C@H](O)[C@@H](O)[C@@H]1F [Compound 9, (2S,3R,4R,5S,6R)-2-[5-(1-benzothiophen-2-ylmethyl)-2-hydroxy-4-methoxyphenyl]-5-fluoro-6-(methoxymethyl)oxane-3,4-diol] |  |  | 0.126 µM | 0.107 µM | 
COc1cc(O)c([C@@H]2O[C@H](CO)[C@@H](F)[C@H](O)[C@H]2O)cc1Cc1cc2c(s1)CCN(C(C)=O)C2 [Compound 79] |  |  | 0.126 µM | 0.137 µM | 
OC[C@H]1O[C@@H](c2cc(Cc3cc4ccccc4s3)c(Cl)cc2O)[C@H](O)[C@@H](O)[C@@H]1F [Compound 7] |  |  | 0.018 µM | 0.006 µM | 
COc1cc(C)c(Cc2cc3ccccc3s2)cc1[C@@H]1O[C@H](CO)[C@@H](F)[C@H](O)[C@H]1O [Compound 18] |  |  | 0.068 µM | 0.018 µM | 
COc1cc(O)c([C@@H]2O[C@H](C)[C@@H](F)[C@H](O)[C@H]2O)cc1Cc1cc2ccccc2s1 [Compound 10] |  |  | 0.085 µM | 0.082 µM | 
OC[C@H]1O[C@@H](c2cc(Cc3cc4ccccc4s3)c3c(c2O)CCO3)[C@H](O)[C@@H](O)[C@@H]1F [Compound 59] |  |  | 0.031 µM | 0.009 µM | 
COc1cc(Cl)c(Cc2cc3c(s2)CCN(C#N)C3)cc1[C@@H]1O[C@H](CO)[C@@H](F)[C@H](O)[C@H]1O [Compound 99] | 28.9% @ 0.3 μM | 83.5% @ 0.3 μM |  |  | 
OC[C@H]1O[C@@H](c2cc(Cc3ccc4c(c3)OCCO4)c(O)c3c2OCC3)[C@H](O)[C@@H](O)[C@@H]1F [Compound 98, (2S,3R,4R,5S,6R)-2-[5-(2,3-dihydro-1,4-benzodioxin-6-ylmethyl)-4-hydroxy-2,3-dihydrobenzofuran-7-yl]-5-fluoro-6-(hydroxymethyl)tetrahydropyran-3,4-diol] |  |  |  |  | inhibition at 0.3 µM [1]: 30.9%; inhibition at 0.3 µM [2]: 26%
Cc1c([C@@H]2O[C@H](CO)[C@@H](F)[C@H](O)[C@H]2O)cc(Cc2ccc3c(c2)SCCO3)c2c1CCO2 [Compound 131] |  |  | 0.231 µM | 0.012 µM | 
Cc1cc(O)c([C@@H]2O[C@H](CO)[C@@H](F)[C@H](O)[C@H]2O)cc1Cc1cc2c(s1)CCN(C#N)C2 [Compound 103, 2-(5-((2S,3R,4R,5S,6R)-5-fluoro-3,4-dihydroxy-6-(hydroxymethyl)-tetrahydro-2H-pyran-2-yl)-4-hydroxy-2-methylbenzyl)-6,7-dihydrothieno[3,2-c]pyridine-5(4H)-carbonitrile] |  |  | 0.086 µM | 0.003 µM | 

Reference: patent publication US11014917B2, “5-fluoro-c-(aryl or heterocyclyl)-glycoside derivatives useful as dual SGLT1 / SGLT2 modulators” (Janssen Pharmaceutica NV, priority 2017, dated 2021)
